Like-named read-outs stand apart in the source and are kept apart here.
What was measured:
Kv1.3 potassium channel = target: T1, Kv1.3 potassium channel (Homo sapiens, UniProt P22001); experiment: Kv1.3 potassium channel blocker activity, automated whole-cell patch clamp (Patchliner); assay type: cell-based; conditions: CHO-K1 cells stably expressing Kv1.3, whole cell current, pulses -90 mV to +40 mV, read-out: Kv1.3_IC50
T1 construct: expressed in transfected cells
How it was run: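 CHO-K1 cells stably expressing Kv1.3, automated whole-cell patch clamp; 100 ms steps from −90 to +40 mV at 0.1 Hz, 20-pulse trains, P/4 leak subtraction. Cumulative 30 nM–100 μM on one cell, ≤10 s incubation; last-pulse peak/AUC normalised to control, IC50 from Hill fit.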

hERG channel = target: T2, hERG channel (Homo sapiens, UniProt Q12809); experiment: hERG electrophysiology, automated whole-cell patch clamp (Patchliner); assay type: cell-based; conditions: CHO-K1 cells stably expressing hERG, whole cell current, tail current protocol, read-out: hERG_IC50
T2 construct: expressed in transfected cells
Method: Example 68. Evaluation of hERG Activities
This assay is used to evaluate the disclosed compounds' inhibition activities against the hERG channel.
CHO-K1 cells stably expressing hERG were grown in Ham's F-12 Medium with Glutamine containing 10% heat-inactivated FBS, 1% Penicillin/Streptomycin, Hygromycin (100 μg/ml) and G418 (100 μg/ml). Cells were grown in culture flasks at 37° C. in a 5% CO2-humidified incubator.
The cells were bathed in an extracellular solution containing 140 mM NaCl, 4 mM KCl, 2 mM CaCl2), 1 mM MgCl2, 5 mM Glucose, 10 mM HEPES; pH adjusted to 7.4 with NaOH; 295-305 mOsm. The internal solution contained 50 mM KCl, 10 mM NaCl, 60 mM KF, 20 mM EGTA, 10 mM HEPES; pH adjusted to 7.2 with KOH; 285 mOsm. All compounds were dissolved in DMSO at 30 mM. Compound stock solutions were freshly diluted with external solution to concentrations of 30 nM, 100 nM, 300 nM, 1 μM, 3 μM, 10 μM, 30 μM and 100 μM. The highest content of DMSO (0.3%) was present in 100 μM.
The voltage protocol (see Table 5) was designed to simulate voltage changes during a cardiac action potential with a 300 ms depolarization to +20 mV (analogous to the plateau phase of the cardiac action potential), a repolarization for 300 ms to −50 mV (inducing a tail current) and a final step to the holding potential of −80 mV. The pulse frequency was 0.3 Hz. Control (compound-free) and compound pulse trains for each compound concentration applied contained 70 pulses.
Whole cell current recordings and compound application were enabled by means of an automated patch clamp platform Patchliner (Nanion). EPC 10 patch clamp amplifier (HEKA) along with Patchmaster software (HEKA Elektronik Dr. Schulze GmbH) was used for data acquisition. Data were sampled at 10 kHz without filtering. Increasing compound concentrations were applied consecutively to the same cell without washouts in between.
AUC and PEAK values were obtained with Patchmaster (HEKA Elektronik Dr. Schulze GmbH). To determine IC50 the last single pulse in the pulse train corresponding to a given compound concentration was used. Obtained AUC and PEAK values in the presence of compound were normalized to control values in the absence of compound. Using Origin (OridinLab), IC50 was derived from data fit to Hill equation: Icompound/Icontrol=(100−A)/(1+([compound]/IC50)nH)+A, where IC50 is the concentration at which current inhibition is half-maximal, [compound] is the applied compound concentration, A is the fraction of current that is not blocked and nH is the Hill coefficient.

T1 sequence (P22001 whole entry): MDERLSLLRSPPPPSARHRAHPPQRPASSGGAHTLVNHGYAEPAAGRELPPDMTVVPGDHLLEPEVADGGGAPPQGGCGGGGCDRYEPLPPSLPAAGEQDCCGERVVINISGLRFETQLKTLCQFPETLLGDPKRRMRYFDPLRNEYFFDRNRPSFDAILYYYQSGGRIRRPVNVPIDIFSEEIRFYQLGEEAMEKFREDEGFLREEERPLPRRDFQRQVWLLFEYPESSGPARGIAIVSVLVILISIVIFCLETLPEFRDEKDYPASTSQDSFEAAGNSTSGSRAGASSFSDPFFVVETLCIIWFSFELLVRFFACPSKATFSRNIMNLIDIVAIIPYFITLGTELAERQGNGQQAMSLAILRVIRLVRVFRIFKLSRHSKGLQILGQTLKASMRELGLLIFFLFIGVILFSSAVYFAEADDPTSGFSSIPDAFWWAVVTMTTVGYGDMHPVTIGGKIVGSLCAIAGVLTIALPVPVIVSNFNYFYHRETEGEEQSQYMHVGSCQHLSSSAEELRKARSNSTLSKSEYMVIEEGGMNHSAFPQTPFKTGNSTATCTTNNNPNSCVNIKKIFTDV
T2 sequence (Q12809 whole entry): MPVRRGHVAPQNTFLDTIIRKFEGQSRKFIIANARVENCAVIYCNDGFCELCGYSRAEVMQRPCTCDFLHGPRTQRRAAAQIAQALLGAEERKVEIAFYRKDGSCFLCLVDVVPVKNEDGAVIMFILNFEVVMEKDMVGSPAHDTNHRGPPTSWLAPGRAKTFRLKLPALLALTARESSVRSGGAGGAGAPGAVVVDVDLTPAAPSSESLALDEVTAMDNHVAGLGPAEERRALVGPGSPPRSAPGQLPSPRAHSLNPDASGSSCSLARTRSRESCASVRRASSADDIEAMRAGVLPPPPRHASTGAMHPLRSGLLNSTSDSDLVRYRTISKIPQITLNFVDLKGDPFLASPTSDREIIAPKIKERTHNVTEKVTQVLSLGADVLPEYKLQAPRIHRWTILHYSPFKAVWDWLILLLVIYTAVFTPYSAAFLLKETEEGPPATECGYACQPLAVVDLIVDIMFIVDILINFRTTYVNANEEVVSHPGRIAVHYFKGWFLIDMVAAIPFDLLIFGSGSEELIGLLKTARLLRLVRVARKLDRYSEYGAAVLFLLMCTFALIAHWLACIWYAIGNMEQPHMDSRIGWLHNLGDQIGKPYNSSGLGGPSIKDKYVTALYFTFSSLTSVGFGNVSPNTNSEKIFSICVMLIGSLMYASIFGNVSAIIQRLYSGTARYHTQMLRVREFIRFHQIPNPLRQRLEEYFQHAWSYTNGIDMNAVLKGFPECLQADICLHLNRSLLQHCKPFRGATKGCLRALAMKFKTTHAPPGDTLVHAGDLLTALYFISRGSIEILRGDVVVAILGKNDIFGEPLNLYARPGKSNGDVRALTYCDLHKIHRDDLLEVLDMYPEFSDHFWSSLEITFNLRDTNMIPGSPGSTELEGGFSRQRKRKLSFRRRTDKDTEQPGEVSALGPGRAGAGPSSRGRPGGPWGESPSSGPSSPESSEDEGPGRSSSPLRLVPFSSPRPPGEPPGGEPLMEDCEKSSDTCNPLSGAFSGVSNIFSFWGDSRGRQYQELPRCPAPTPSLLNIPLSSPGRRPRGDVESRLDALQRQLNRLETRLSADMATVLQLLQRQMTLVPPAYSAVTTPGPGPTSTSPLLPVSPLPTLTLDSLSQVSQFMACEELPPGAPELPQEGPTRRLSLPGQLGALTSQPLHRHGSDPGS

Structure (SMILES): NC(c1ccncc1)c1cc(Cl)c(Cl)cc1O (centres unmarked) [Compound 6, 2-[amino(pyridin-4-yl)methyl]-4,5-dichlorophenol]
- IC50 (Kv1.3 potassium channel; Table 6): < 10000 nM
- IC50 (hERG channel; Table 6): > 30 µM

Structure (SMILES): Nc1cc(C(O)c2c(O)ccc(Cl)c2Cl)ccn1 (single isomer, unassigned) [Compound 45, 2-[(2-aminopyridin-4-yl)(hydroxy)methyl]-3,4-dichlorophenol]
- IC50 (Kv1.3 potassium channel; Table 6): < 1000 nM
- IC50 (hERG channel; Table 6): > 30 µM

Structure (SMILES): C[C@H](NC(=O)C1CNC1)c1c(O)ccc(Cl)c1Cl [Compound 76, N-[(1S)-1-(2,3-dichloro-6-hydroxyphenyl)ethyl]azetidine-3-carboxamide]
- IC50 (Kv1.3 potassium channel; Table 7): < 1000 nM
- IC50 (hERG channel; Table 7): > 30 µM

Structure (SMILES): Oc1ccc(Cl)c(Cl)c1C(O)c1cccnc1 (centres unmarked) [Compound 31, 3,4-dichloro-2-[hydroxy(pyridin-3-yl)methyl]phenol]
- IC50 (Kv1.3 potassium channel; Table 6): < 1000 nM
- IC50 (hERG channel; Table 6): > 30 µM

Structure (SMILES): C[C@H](NC(=O)C1CN(CCO)C1)c1c(O)ccc(Cl)c1Cl [Compound 89, N-[(1S)1-(2,3-dichloro-6-hydroxyphenyl)ethyl]-1-(2-hydroxyethyl) azetidine-3-carboxamide]
- IC50 (Kv1.3 potassium channel; Table 7): < 1000 nM
- IC50 (hERG channel; Table 7): > 30 µM

Structure (SMILES): Nc1ccc(C(O)c2c(O)ccc(Cl)c2Cl)cn1 (centres unmarked) [Compound 40, 2-[(6-aminopyridin-3-yl)(hydroxy)methyl]-3,4-dichlorophenol]
- IC50 (Kv1.3 potassium channel; Table 6): < 1000 nM
- IC50 (hERG channel; Table 6): < 30 µM

Structure (SMILES): O=C(NC(c1ccncc1)c1cc(Cl)c(Cl)cc1O)C1CNC1 (centres unmarked) [Compound 26, N-[(4,5-dichloro-2-hydroxyphenyl)(pyridin-4-yl)methyl]azetidine-3-carboxamide]
- IC50 (Kv1.3 potassium channel; Table 6): < 1000 nM
- IC50 (hERG channel; Table 6): > 30 µM
